Experimental data from PubChem BioAssay (NCI).
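Compound exposure: 48 hours, 5 concentrations, 96-well plates. TGI marks complete inhibition of growth.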

Tests used:
Test in all cases: NCI tumour cell line growth inhibition, 48 h
ACHN renal = tested on: ACHN renal
HL-60(TB) leukemia = tested on: HL-60(TB) leukemia
786-0 renal = tested on: 786-0 renal
MDA-N = tested on: MDA-N
MOLT-4 leukemia = tested on: MOLT-4 leukemia
T-47D breast = tested on: T-47D breast
CCRF-CEM leukemia = tested on: CCRF-CEM leukemia
A549 NSCLC = tested on: A549 NSCLC
NCI-H23 lung = tested on: NCI-H23 lung
COLO 205 colon = tested on: COLO 205 colon
A498 renal = tested on: A498 renal
HCT-116 colon = tested on: HCT-116 colon
SF-295 CNS = tested on: SF-295 CNS
RXF 393 renal = tested on: RXF 393 renal
OVCAR-3 ovarian = tested on: OVCAR-3 ovarian
OVCAR-5 ovarian = tested on: OVCAR-5 ovarian
MALME-3M melanoma = tested on: MALME-3M melanoma
HT29 colon = tested on: HT29 colon
SK-MEL-28 melanoma = tested on: SK-MEL-28 melanoma
EKVX NSCLC = tested on: EKVX NSCLC
PC-3 prostate = tested on: PC-3 prostate
SF-268 CNS = tested on: SF-268 CNS
MDA-MB-231 breast = tested on: MDA-MB-231 breast
TK-10 renal = tested on: TK-10 renal
MDA-MB-435 = tested on: MDA-MB-435
HCC-2998 colon = tested on: HCC-2998 colon
M14 melanoma = tested on: M14 melanoma
CAKI-1 renal = tested on: CAKI-1 renal
HOP-62 NSCLC = tested on: HOP-62 NSCLC
SNB-19 CNS = tested on: SNB-19 CNS
U251 CNS = tested on: U251 CNS
IGROV1 ovarian = tested on: IGROV1 ovarian
HOP-92 NSCLC = tested on: HOP-92 NSCLC
HS 578T breast = tested on: HS 578T breast
MCF7 breast = tested on: MCF7 breast
SF-539 CNS = tested on: SF-539 CNS
OVCAR-4 ovarian = tested on: OVCAR-4 ovarian
K-562 leukemia = tested on: K-562 leukemia
OVCAR-8 ovarian = tested on: OVCAR-8 ovarian
NCI-H226 lung = tested on: NCI-H226 lung
SW-620 colon = tested on: SW-620 colon
SK-OV-3 ovarian = tested on: SK-OV-3 ovarian
BT-549 breast = tested on: BT-549 breast
HCT-15 colon = tested on: HCT-15 colon
NCI/ADR-RES ovarian = tested on: NCI/ADR-RES ovarian
SK-MEL-5 melanoma = tested on: SK-MEL-5 melanoma
UO-31 renal = tested on: UO-31 renal
UACC-257 melanoma = tested on: UACC-257 melanoma
SNB-75 CNS = tested on: SNB-75 CNS
NCI-H460 lung = tested on: NCI-H460 lung
SN12C renal = tested on: SN12C renal
SR leukemia = tested on: SR leukemia
UACC-62 melanoma = tested on: UACC-62 melanoma
DU-145 prostate = tested on: DU-145 prostate
KM12 colon = tested on: KM12 colon
SK-MEL-2 melanoma = tested on: SK-MEL-2 melanoma
RPMI-8226 leukemia = tested on: RPMI-8226 leukemia
NCI-H522 lung = tested on: NCI-H522 lung
LOX IMVI melanoma = tested on: LOX IMVI melanoma

CC(C)C(/C=C/c1ccc(Cl)cc1)=N\NC(=O)N/N=C(/C=C/c1ccc(Cl)cc1)C(C)C
TGI (ACHN renal): 87.3 µM
TGI (HL-60(TB) leukemia): > 100 µM
TGI (786-0 renal): 33.5 µM
TGI (MDA-N): > 100 µM
TGI (MOLT-4 leukemia): > 100 µM
TGI (T-47D breast): > 100 µM
TGI (CCRF-CEM leukemia): > 100 µM
TGI (A549 NSCLC): 41.5 µM
TGI (NCI-H23 lung): 55.9 µM
TGI (COLO 205 colon): > 100 µM
TGI (A498 renal): 33.9 µM
TGI (HCT-116 colon): 39 µM
TGI (SF-295 CNS): 45.2 µM
TGI (RXF 393 renal): 76.9 µM
TGI (OVCAR-3 ovarian): 35.8 µM
TGI (OVCAR-5 ovarian): > 100 µM
TGI (MALME-3M melanoma): > 100 µM
TGI (HT29 colon): > 100 µM
TGI (SK-MEL-28 melanoma): > 100 µM
TGI (EKVX NSCLC): 50.5 µM
TGI (PC-3 prostate): > 100 µM
TGI (SF-268 CNS): 41.3 µM
TGI (MDA-MB-231 breast): 49.4 µM
TGI (TK-10 renal): 51.3 µM
TGI (MDA-MB-435): 87.6 µM
TGI (HCC-2998 colon): > 100 µM
TGI (M14 melanoma): 60 µM
TGI (CAKI-1 renal): 35.6 µM
TGI (HOP-62 NSCLC): 47.3 µM
TGI (SNB-19 CNS): 38.8 µM
TGI (U251 CNS): 30.6 µM
TGI (IGROV1 ovarian): 94.7 µM
TGI (HOP-92 NSCLC): 56.9 µM
TGI (HS 578T breast): 50.8 µM
TGI (MCF7 breast): > 100 µM
TGI (SF-539 CNS): 31.2 µM
TGI (OVCAR-4 ovarian): 36 µM
TGI (K-562 leukemia): > 100 µM
TGI (OVCAR-8 ovarian): 38 µM
TGI (NCI-H226 lung): 54.9 µM
TGI (SW-620 colon): > 100 µM
TGI (SK-OV-3 ovarian): 93.1 µM
TGI (BT-549 breast): 97.9 µM
TGI (HCT-15 colon): > 100 µM
TGI (NCI/ADR-RES ovarian): 78.9 µM
TGI (SK-MEL-5 melanoma): > 100 µM
TGI (UO-31 renal): > 100 µM
TGI (UACC-257 melanoma): > 100 µM
TGI (SNB-75 CNS): 39 µM
TGI (NCI-H460 lung): 54.8 µM
TGI (SN12C renal): 33.7 µM
TGI (SR leukemia): 80.7 µM
TGI (UACC-62 melanoma): > 100 µM
TGI (DU-145 prostate): > 100 µM
TGI (KM12 colon): > 100 µM
TGI (SK-MEL-2 melanoma): 59.8 µM
TGI (RPMI-8226 leukemia): > 100 µM

S=C(S)NCCN1CCNCC1
TGI (ACHN renal): > 100 µM
TGI (HL-60(TB) leukemia): 8.01 µM
TGI (786-0 renal): 77 µM
TGI (MDA-N): > 100 µM
TGI (T-47D breast): 60.7 µM
TGI (CCRF-CEM leukemia): > 100 µM
TGI (NCI-H522 lung): 32.7 µM
TGI (A549 NSCLC): > 100 µM
TGI (NCI-H23 lung): > 100 µM
TGI (COLO 205 colon): 43.7 µM
TGI (A498 renal): > 100 µM
TGI (HCT-116 colon): > 100 µM
TGI (SF-295 CNS): > 100 µM
TGI (RXF 393 renal): 64.3 µM
TGI (OVCAR-3 ovarian): 63.8 µM
TGI (OVCAR-5 ovarian): > 100 µM
TGI (MALME-3M melanoma): 82.5 µM
TGI (HT29 colon): > 100 µM
TGI (SK-MEL-28 melanoma): > 100 µM
TGI (EKVX NSCLC): > 100 µM
TGI (PC-3 prostate): > 100 µM
TGI (SF-268 CNS): > 100 µM
TGI (MDA-MB-231 breast): > 100 µM
TGI (TK-10 renal): 58.4 µM
TGI (LOX IMVI melanoma): > 100 µM
TGI (MDA-MB-435): > 100 µM
TGI (HCC-2998 colon): 68.7 µM
TGI (M14 melanoma): > 100 µM
TGI (CAKI-1 renal): > 100 µM
TGI (HOP-62 NSCLC): > 100 µM
TGI (SNB-19 CNS): > 100 µM
TGI (U251 CNS): > 100 µM
TGI (IGROV1 ovarian): > 100 µM
TGI (HOP-92 NSCLC): > 100 µM
TGI (HS 578T breast): > 100 µM
TGI (MCF7 breast): > 100 µM
TGI (OVCAR-4 ovarian): > 100 µM
TGI (K-562 leukemia): > 100 µM
TGI (OVCAR-8 ovarian): 95.3 µM
TGI (NCI-H226 lung): > 100 µM
TGI (SW-620 colon): > 100 µM
TGI (SK-OV-3 ovarian): > 100 µM
TGI (BT-549 breast): > 100 µM
TGI (HCT-15 colon): > 100 µM
TGI (NCI/ADR-RES ovarian): > 100 µM
TGI (SK-MEL-5 melanoma): > 100 µM
TGI (UO-31 renal): > 100 µM
TGI (UACC-257 melanoma): 59 µM
TGI (SNB-75 CNS): > 100 µM
TGI (NCI-H460 lung): > 100 µM
TGI (SN12C renal): > 100 µM
TGI (SR leukemia): > 100 µM
TGI (UACC-62 melanoma): > 100 µM
TGI (DU-145 prostate): > 100 µM
TGI (KM12 colon): > 100 µM
TGI (SK-MEL-2 melanoma): > 100 µM
TGI (RPMI-8226 leukemia): 47.5 µM
